The source of these data is paper PMC3527664, “Kinetic properties and small-molecule inhibition of human myosin-6” (Febs Letters, 2012).

Assay [1] concerns the target T1, human myosin-6 (M6-2R) (Homo sapiens, UniProt Q9UM54). The assay is described as follows: stopped-flow fluorescence, KD = k−D/k+D. Type of assay: binding. The settings on record: read-out: Hs Myosin-6 ^a^, ^b. The arrangement: gene MYO6; M6-2R (human myosin-6 motor domain, amino acids 1-816, fused to artificial lever).
In assay [2] the target is T1, human myosin-6 (M6-2R). Put plainly: stopped-flow, ATP binding to pyrene-acto•M6-2R; steady-state ATPase turnover. The arrangement: gene MYO6; M6-2R (human myosin-6 motor domain, amino acids 1-816, fused to artificial lever); with F-actin (pyrene-actin). An excerpt: stopped-flow, ATP binding to pyrene-acto•M6-2R; steady-state ATPase turnover on human myosin-6 (M6-2R) | ATP binding to the complex formed by pyrene–actin and M6-2R show a linear dependence on [ATP]

In assay [3] the target is T1, human myosin-6 (M6-2R). The assay is described as follows: stopped-flow fluorescence, second-order binding rate constant K1k+[…]. The arrangement: gene MYO6; M6-2R (human myosin-6 motor domain, amino acids 1-816, fused to artificial lever).
The target in assay [4] is T2, human myosin-6 (Homo sapiens, UniProt Q9UM54).
T2 construct: gene MYO6; human myosin-6 motor domain construct M6-2R (amino acids 1-816)
T2 sequence (Q9UM54 1-816): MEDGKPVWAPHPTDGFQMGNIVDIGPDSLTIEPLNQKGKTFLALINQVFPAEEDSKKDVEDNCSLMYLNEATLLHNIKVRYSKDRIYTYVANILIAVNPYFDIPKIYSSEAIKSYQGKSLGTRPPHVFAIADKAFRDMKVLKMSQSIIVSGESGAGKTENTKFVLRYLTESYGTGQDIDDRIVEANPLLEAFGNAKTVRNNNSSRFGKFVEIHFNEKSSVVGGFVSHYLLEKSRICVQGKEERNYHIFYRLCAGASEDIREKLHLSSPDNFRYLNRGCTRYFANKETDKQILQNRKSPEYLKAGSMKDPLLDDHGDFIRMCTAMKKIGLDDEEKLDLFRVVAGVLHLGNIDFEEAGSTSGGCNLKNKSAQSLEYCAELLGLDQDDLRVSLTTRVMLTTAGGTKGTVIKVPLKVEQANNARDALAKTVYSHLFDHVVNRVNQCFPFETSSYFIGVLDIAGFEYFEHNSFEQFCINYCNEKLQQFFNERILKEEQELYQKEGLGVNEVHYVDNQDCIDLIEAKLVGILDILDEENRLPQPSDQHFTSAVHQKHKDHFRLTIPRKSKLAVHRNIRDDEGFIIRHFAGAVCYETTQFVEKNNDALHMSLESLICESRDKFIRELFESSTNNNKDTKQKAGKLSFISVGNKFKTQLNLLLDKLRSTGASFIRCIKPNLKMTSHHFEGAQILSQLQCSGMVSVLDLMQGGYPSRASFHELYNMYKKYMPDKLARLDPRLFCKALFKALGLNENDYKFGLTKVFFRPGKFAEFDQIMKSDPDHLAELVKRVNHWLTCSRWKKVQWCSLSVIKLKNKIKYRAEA
Put plainly: myosin-6 ATPase assay; MST affinity ranking. It counts as biochemical.

The target of assay [5] is T1, human myosin-6 (M6-2R). The assay is described as follows: actin-activated ATPase assay (NADH-coupled), biphasic inhibition; binding also by MST (data not shown). Type of assay: biochemical. The arrangement: gene MYO6; amino acids 1-816 of human myosin-6 motor domain fused to an artificial lever derived from Dictyostelium discoideum α-actinin (M6-2R); with F-actin (rabbit skeletal muscle); calmodulin associated with insert-2.

T1 sequence (Q9UM54 1-816): as above

In the case of mantADP, the Kd in assay [1] was found to be 2000 ± 150 nM.
Usually kon stands for the second-order rate constant of association. A higher kon goes with faster complex formation. For `Nc1ncnc2c1ncn2[C@@H]1O[C@H](COP(=O)(O)OP(=O)(O)OP(=O)(O)O)[C@@H](O)[C@H]1O` [ATP], the kon in assay [2] was found to be 11000 ± 300 M⁻¹ s⁻¹.
For the compound `CNc1ccccc1C(=O)O[C@H]1C[C@H](n2cnc3c(N)ncnc32)O[C@@H]1COP(=O)(O)OP(=O)(O)OP(=O)(O)O` [d-mantATP, 2′-deoxy-3′-O-(N′-methylanthraniloyl)adenosine-5′-O-triphosphate], the kon in assay [3] amounted to 50000 ± 10000 M⁻¹ s⁻¹.
Consider `Oc1c(Br)c(Br)c(Br)c(Br)c1Br` [pentabromophenol], for which the “myosin-6 ATPase assay; MST affinity ranking” value in assay [4] was “Pentabromophenol and TIP inhibit myosin-6 ATPase activity in the low micromolar range”.
The term Ki denotes the dissociation constant of the complex between target and ligand, obtained from inhibition or displacement. Higher therefore signals lower affinity. As to `Oc1c(I)cc(I)cc1I` [TIP, 2,4,6-triiodophenol], the Ki in assay [5] worked out at 800 ± 500 nM.
